Non-standard residues stand in square brackets, D forms with d. Residues, ends and D or L forms follow the SMILES beside them. No end group written: not given here.
Molecular target: ribonucleotide reductase enzyme of herpes simplex virus (Human herpesvirus 1, UniProt P08543)
Experiment: not given
Settings: Nature 321:439-441 and 441-443 (1986); cited from earlier work

| Compound | inhibition in vitro of the activity of the enzyme |
| --- | --- |
| Tyr Ala Gly Ala Val Val Asn Asp Leu | inhibited |

Molecular target: T1, ribonucleotide reductase enzyme of herpes simplex virus (Human herpesvirus 1, UniProt P08543)
T1 sequence (P08543 whole entry, looked up): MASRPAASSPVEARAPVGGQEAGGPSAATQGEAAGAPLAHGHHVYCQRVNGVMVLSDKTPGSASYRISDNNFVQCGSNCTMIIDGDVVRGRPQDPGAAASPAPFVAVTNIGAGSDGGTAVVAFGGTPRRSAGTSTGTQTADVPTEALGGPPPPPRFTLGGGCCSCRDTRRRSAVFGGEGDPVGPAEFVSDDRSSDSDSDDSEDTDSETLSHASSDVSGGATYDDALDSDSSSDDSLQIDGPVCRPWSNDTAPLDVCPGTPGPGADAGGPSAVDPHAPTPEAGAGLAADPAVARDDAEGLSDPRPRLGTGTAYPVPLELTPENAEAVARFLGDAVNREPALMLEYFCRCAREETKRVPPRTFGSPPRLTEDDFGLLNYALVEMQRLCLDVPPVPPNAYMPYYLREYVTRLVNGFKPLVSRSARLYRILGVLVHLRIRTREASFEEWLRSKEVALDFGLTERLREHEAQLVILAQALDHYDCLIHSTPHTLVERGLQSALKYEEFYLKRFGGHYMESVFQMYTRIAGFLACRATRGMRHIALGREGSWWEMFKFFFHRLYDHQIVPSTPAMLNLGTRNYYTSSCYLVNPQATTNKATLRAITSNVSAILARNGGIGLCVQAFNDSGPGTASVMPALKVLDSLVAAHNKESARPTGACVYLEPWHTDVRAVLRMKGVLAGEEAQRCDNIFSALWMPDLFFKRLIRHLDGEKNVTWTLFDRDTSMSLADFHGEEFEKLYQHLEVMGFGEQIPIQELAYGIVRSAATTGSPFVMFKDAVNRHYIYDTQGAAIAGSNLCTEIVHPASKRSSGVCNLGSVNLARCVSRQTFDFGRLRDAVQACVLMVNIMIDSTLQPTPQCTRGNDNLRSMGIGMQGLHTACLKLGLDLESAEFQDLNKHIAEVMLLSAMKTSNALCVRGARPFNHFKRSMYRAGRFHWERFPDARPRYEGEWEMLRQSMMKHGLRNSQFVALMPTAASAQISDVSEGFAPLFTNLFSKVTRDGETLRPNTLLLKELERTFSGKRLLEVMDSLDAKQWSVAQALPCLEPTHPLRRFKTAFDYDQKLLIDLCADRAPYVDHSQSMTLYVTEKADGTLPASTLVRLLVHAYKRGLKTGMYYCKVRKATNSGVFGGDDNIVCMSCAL
Experiment: not given
Settings: Nature 321:439-441 and 441-443 (1986); cited from earlier work

| Compound | inhibition in vitro of the activity of the enzyme |
| --- | --- |
| YGAVVNDL [8-desalanine homolog of the nonapeptide, disclosed by Dutia et al] | inhibited |

Molecular target: T2, Herpes Simplex Virus Ribonucleotide Reductase (HSV RR) (Human herpesvirus 2, UniProt P89462)
T2 construct: HSV RR was purified by Baby Hamster Kidney cells that were cultured with HSV2 Strain 186; made in house; host or cells: Baby Hamster Kidney cells infected with HSV2 Strain 186; crude enzyme per Huszar et al., then hydroxyapatite chromatography
Experiment: Assay of inhibition of HSV RR (reduction of tritiated cytidine-diphosphate to deoxyribo-cytidinediphosphate)
Assay type: biochemical, HSV2 Strain 186
Settings: not given
Experimental: After infection, cells were harvested and lysed.
HSV RR activity was determined as the ability of the enzyme to catalyze the reduction of tritiated cytidine-diphosphate to deoxyribo-cytidinediphosphate in 30 minutes at 37° C. in the presence of dithiothreitol and MgCl2. Activity of oligopeptide inhibitors was determined by adding them to the reaction mix at the beginning of the incubation. Enzyme was not preincubated with inhibitor.
These were analyzed for amino acid composition and in some cases sequenced. Dry peptides were resuspended in 100 mM HEPES (pH 8.0) at about 2mM, relyophilized, and stored in aliquots at -80° C. Immediately prior to use they were rehydrated with distilled H2 O and centrifuged to remove any undissolved peptide.

T2 sequence (P89462 whole entry): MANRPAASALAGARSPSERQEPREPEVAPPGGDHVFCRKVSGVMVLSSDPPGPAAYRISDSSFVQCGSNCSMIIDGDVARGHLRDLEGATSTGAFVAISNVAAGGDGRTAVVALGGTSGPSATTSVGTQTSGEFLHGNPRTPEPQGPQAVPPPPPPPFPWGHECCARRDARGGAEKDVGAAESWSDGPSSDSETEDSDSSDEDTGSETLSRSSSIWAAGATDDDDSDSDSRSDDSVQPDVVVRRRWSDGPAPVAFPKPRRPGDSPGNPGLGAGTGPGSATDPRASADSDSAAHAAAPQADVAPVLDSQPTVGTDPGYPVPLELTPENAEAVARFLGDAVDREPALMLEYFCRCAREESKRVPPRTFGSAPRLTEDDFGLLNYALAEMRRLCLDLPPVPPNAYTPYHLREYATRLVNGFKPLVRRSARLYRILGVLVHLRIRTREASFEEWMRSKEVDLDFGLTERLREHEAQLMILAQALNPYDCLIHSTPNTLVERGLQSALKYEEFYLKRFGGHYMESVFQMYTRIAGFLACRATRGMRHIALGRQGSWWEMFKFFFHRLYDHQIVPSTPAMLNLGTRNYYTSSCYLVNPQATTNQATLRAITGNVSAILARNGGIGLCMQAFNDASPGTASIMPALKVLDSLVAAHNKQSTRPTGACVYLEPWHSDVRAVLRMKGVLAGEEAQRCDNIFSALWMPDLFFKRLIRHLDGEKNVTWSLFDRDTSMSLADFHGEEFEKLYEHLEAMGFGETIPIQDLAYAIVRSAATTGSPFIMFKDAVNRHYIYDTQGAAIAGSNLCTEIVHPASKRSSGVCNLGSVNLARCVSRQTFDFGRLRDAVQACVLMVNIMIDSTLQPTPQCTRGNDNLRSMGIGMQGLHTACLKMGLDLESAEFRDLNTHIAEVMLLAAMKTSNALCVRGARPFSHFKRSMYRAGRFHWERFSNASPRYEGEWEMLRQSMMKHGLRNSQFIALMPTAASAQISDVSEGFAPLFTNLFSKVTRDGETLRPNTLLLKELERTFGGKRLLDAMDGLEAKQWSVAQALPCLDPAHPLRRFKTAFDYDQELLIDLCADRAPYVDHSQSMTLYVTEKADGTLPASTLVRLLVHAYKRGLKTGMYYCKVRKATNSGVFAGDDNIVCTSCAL

| Compound | IC50 |
| --- | --- |
| CC(C)C[C@H](NC(=O)[C@H](CC(=O)O)NC(=O)[C@H](CC(N)=O)NC(=O)[C@@H](NC(=O)[C@@H](NC(=O)[C@H](C)NC(=O)CNC(=O)[C@@H](C)NC(=O)[C@@H](N)Cc1ccc(O)cc1)C(C)C)C(C)C)C(=O)O [Y dA G A V V N D L] | 210 µM |

Same assay, conditions: 30 minutes at 37° C., dithiothreitol and MgCl2; enzyme not preincubated with inhibitor; read-out: IC50 (μM concentration of peptide producing 50% inhibition of enzyme activity)

| Compound | IC50 |
| --- | --- |
| CC(C)C[C@H](NC(=O)[C@@H](CC(=O)O)NC(=O)[C@H](CC(N)=O)NC(=O)[C@@H](NC(=O)[C@@H](NC(=O)[C@H](C)N)C(C)C)C(C)C)C(=O)O [A V V N dD L] (H-AVVN[dD]L-OH) | 520 µM |
| CC(C)C[C@H](NC(=O)[C@H](CC(=O)O)NC(=O)[C@@H](CC(N)=O)NC(=O)[C@@H](NC(=O)[C@@H](NC(=O)[C@H](C)N)C(C)C)C(C)C)C(=O)O [A V V dN D L] (H-AVV[dN]DL-OH) | 460 µM |
| CC(C)C[C@H](NC(=O)[C@H](CC(=O)O)NC(=O)[C@H](CC(N)=O)NC(=O)[C@H](NC(=O)[C@@H](NC(=O)[C@H](C)N)C(C)C)C(C)C)C(=O)O [A V dV N D L] (H-AV[dV]NDL-OH) | 600 µM |
| CC(C)C[C@H](NC(=O)[C@H](CC(=O)O)NC(=O)[C@@H](CC(N)=O)NC(=O)[C@@H](NC(=O)[C@@H](NC(=O)[C@H](C)NC(=O)CNC(=O)[C@H](C)NC(=O)[C@@H](N)Cc1ccc(O)cc1)C(C)C)C(C)C)C(=O)O [Y A G A V V dN D L] | > 620 µM |
| CC(C)C[C@H](NC(=O)[C@H](CC(=O)O)NC(=O)[C@H](CC(N)=O)NC(=O)[C@@H](NC(=O)[C@@H](NC(=O)[C@@H](C)NC(=O)CNC(=O)[C@H](C)NC(=O)[C@@H](N)Cc1ccc(O)cc1)C(C)C)C(C)C)C(=O)O [Y A G dA V V N D L] | 72 µM |
| CC(C)C[C@H](NC(=O)[C@H](CC(=O)O)NC(=O)[C@H](CC(N)=O)NC(=O)[C@@H](NC(=O)[C@@H](NC(=O)[C@H](C)NC(=O)[C@@H](C)NC(=O)[C@H](C)NC(=O)[C@@H](N)Cc1ccc(O)cc1)C(C)C)C(C)C)C(=O)O [Y A dA A V V N D L] (H-YA[dA]AVVNDL-OH) | 88 µM |
| CC(C)C[C@H](NC(=O)[C@H](CC(=O)O)NC(=O)[C@H](CC(N)=O)NC(=O)[C@@H](NC(=O)[C@@H](NC(=O)[C@@H](C)N)C(C)C)C(C)C)C(=O)O [dA V V N D L] (H-[dA]VVNDL-OH) | 90 µM |
| CC(C)C[C@H](NC(=O)[C@H](CC(=O)O)NC(=O)[C@H](CC(N)=O)NC(=O)[C@@H](NC(=O)[C@@H](NC(=O)[C@H](C)NC(=O)CNC(=O)[C@H](C)NC(=O)[C@H](N)Cc1ccc(O)cc1)C(C)C)C(C)C)C(=O)O [dY A G A V V N D L] | 40 µM |
| CC(C)C[C@H](NC(=O)[C@H](CC(=O)O)NC(=O)[C@H](CC(N)=O)NC(=O)[C@@H](NC(=O)[C@@H](NC(=O)[C@H](N)Cc1ccc(O)cc1)C(C)C)C(C)C)C(=O)O [dY V V N D L] (H-[dY]VVNDL-OH) | 30 µM |
